Experimental data from ChEMBL document CHEMBL1121424, “Orally active cephalosporins and penicillins” (J Med Chem, 1980).
Values after ≈ are worked out from the molar mass of the structure shown.

test system: Streptococcus pyogenes; assay: Tested for inhibition of visible growth of Streptococcus pyogenes; format: functional; settings: not given

SMILES	MIC
CC1=C(C(=O)O)N2C(=O)C(NC(=O)[C@H](N)c3ccc4c(c3)CCO4)C2SC1 (some centres undefined)	0.2 µg/mL (≈ 0.514 µM)
CC1=C(C(=O)O)N2C(=O)C(NC(=O)C(N)c3ccc4c(c3)OCCO4)C2SC1 (mixture of isomers)	0.8 µg/mL
CC(=O)OCC1=C(C(=O)O)N2C(=O)C(NC(=O)C(N)c3ccc4c(c3)OCO4)C2SC1 (racemic)	0.2 µg/mL (≈ 0.445 µM)

Now from value to compound:

MIC	SMILES
0.8 µg/mL (≈ 1.89 µM)	CC1(C)SC2C(NC(=O)C(C(=O)O)c3ccc4c(c3)OCO4)C(=O)N2C1C(=O)O (racemic)
0.4 µg/mL (≈ 1.02 µM)	CC1=C(C(=O)O)N2C(=O)C(NC(=O)C(N)c3cccc4c3OCO4)C2SC1 (centres undefined)

test system: Klebsiella pneumoniae; assay: Tested for inhibition of visible growth of Klebsiella pneumoniae; format: functional; settings: not given

SMILES	MIC
CC1=C(C(=O)O)N2C(=O)C(NC(=O)[C@H](N)c3ccc4c(c3)CCO4)C2SC1 (some centres undefined)	25 µg/mL (≈ 64.2 µM)
CC1=C(C(=O)O)N2C(=O)C(NC(=O)C(N)c3ccc4c(c3)OCCO4)C2SC1 (mixture of isomers)	200 µg/mL
CC(=O)OCC1=C(C(=O)O)N2C(=O)C(NC(=O)C(N)c3ccc4c(c3)OCO4)C2SC1 (racemic)	25 µg/mL (≈ 55.6 µM)

Further lines, results first:

MIC	SMILES
100 µg/mL (≈ 237 µM)	CC1(C)SC2C(NC(=O)C(C(=O)O)c3ccc4c(c3)OCO4)C(=O)N2C1C(=O)O (racemic)
> 200 µg/mL	CC1=C(C(=O)O)N2C(=O)C(NC(=O)C(N)c3cccc4c3OCO4)C2SC1 (centres undefined)

test system: Streptococcus pneumoniae; assay: (§1) Tested for the antimicrobial activity against Streptococcus pneumoniae in mice; format: functional; settings: not given

SMILES	ED50
CC1=C(C(=O)O)N2C(=O)C(NC(=O)[C@H](N)c3ccc4c(c3)CCO4)C2SC1 (some centres undefined)	10 mg/kg

test system: Staphylococcus aureus; assay: Tested for inhibition of visible growth of Staphylococcus aureus; format: functional; settings: not given

SMILES	MIC
CC1=C(C(=O)O)N2C(=O)C(NC(=O)[C@H](N)c3ccc4c(c3)CCO4)C2SC1 (some centres undefined)	1.6 µg/mL (≈ 4.11 µM)
CC1=C(C(=O)O)N2C(=O)C(NC(=O)C(N)c3ccc4c(c3)OCCO4)C2SC1 (mixture of isomers)	6.2 µg/mL
CC(=O)OCC1=C(C(=O)O)N2C(=O)C(NC(=O)C(N)c3ccc4c(c3)OCO4)C2SC1 (racemic)	6.2 µg/mL (≈ 13.8 µM)

Now from value to compound:

MIC	SMILES
12.5 µg/mL (≈ 29.6 µM)	CC1(C)SC2C(NC(=O)C(C(=O)O)c3ccc4c(c3)OCO4)C(=O)N2C1C(=O)O (racemic)
6.2 µg/mL (≈ 15.8 µM)	CC1=C(C(=O)O)N2C(=O)C(NC(=O)C(N)c3cccc4c3OCO4)C2SC1 (centres undefined)

test system: Staphylococcus aureus; assay: Tested for the antimicrobial activity against Staphylococcus aureus; format: functional; settings: not given

SMILES	ED50
CC1=C(C(=O)O)N2C(=O)C(NC(=O)[C@H](N)c3ccc4c(c3)CCO4)C2SC1 (some centres undefined)	0.63 mg/kg

test system: not listed separately; assay: Tested for the peak time in mice following 39 mg/kg oral dose of cephalosporin; format: ADME, organism-based; set-up: dose 39 mg/kg, route oral; settings: mouse, in vivo, read-out: Peak time (converted)

SMILES	Tmax
CC1=C(C(=O)O)N2C(=O)C(NC(=O)[C@H](N)c3ccc4c(c3)CCO4)C2SC1 (some centres undefined)	10 min

test system: Proteus mirabilis; assay: Tested for inhibition of visible growth of Proteus mirabilis; format: functional; settings: not given

SMILES	MIC
CC1=C(C(=O)O)N2C(=O)C(NC(=O)[C@H](N)c3ccc4c(c3)CCO4)C2SC1 (some centres undefined)	> 100 µg/mL
CC1=C(C(=O)O)N2C(=O)C(NC(=O)C(N)c3ccc4c(c3)OCCO4)C2SC1 (mixture of isomers)	> 200 µg/mL
CC(=O)OCC1=C(C(=O)O)N2C(=O)C(NC(=O)C(N)c3ccc4c(c3)OCO4)C2SC1 (racemic)	100 µg/mL (≈ 222 µM)

Second part, the compound after the results:

MIC	SMILES
3.1 µg/mL (≈ 7.34 µM)	CC1(C)SC2C(NC(=O)C(C(=O)O)c3ccc4c(c3)OCO4)C(=O)N2C1C(=O)O (racemic)
> 200 µg/mL	CC1=C(C(=O)O)N2C(=O)C(NC(=O)C(N)c3cccc4c3OCO4)C2SC1 (centres undefined)

species on record: Mus musculus; assay: Tested for the antimicrobial activity against Staphylococcus aureus, benzyl-penicillin resistant in mice, perorally; format: functional; settings: po

SMILES	ED50
CC1=C(C(=O)O)N2C(=O)C(NC(=O)[C@H](N)c3ccc4c(c3)CCO4)C2SC1 (some centres undefined)	7 mg/kg

test system: Enterobacter cloacae; assay: Tested for inhibition of visible growth of Enterobacter cloacae; format: functional; settings: not given

SMILES	MIC
CC1=C(C(=O)O)N2C(=O)C(NC(=O)[C@H](N)c3ccc4c(c3)CCO4)C2SC1 (some centres undefined)	> 100 µg/mL
CC1=C(C(=O)O)N2C(=O)C(NC(=O)C(N)c3ccc4c(c3)OCCO4)C2SC1 (mixture of isomers)	> 200 µg/mL
CC(=O)OCC1=C(C(=O)O)N2C(=O)C(NC(=O)C(N)c3ccc4c(c3)OCO4)C2SC1 (racemic)	> 200 µg/mL

Results, then the compound that gave them:

MIC	SMILES
100 µg/mL (≈ 237 µM)	CC1(C)SC2C(NC(=O)C(C(=O)O)c3ccc4c(c3)OCO4)C(=O)N2C1C(=O)O (racemic)
> 200 µg/mL	CC1=C(C(=O)O)N2C(=O)C(NC(=O)C(N)c3cccc4c3OCO4)C2SC1 (centres undefined)

test system: Klebsiella aerogenes; assay: Tested for inhibition of visible growth of Enterobacter aerogenes; format: functional; settings: not given

SMILES	MIC
CC1=C(C(=O)O)N2C(=O)C(NC(=O)[C@H](N)c3ccc4c(c3)CCO4)C2SC1 (some centres undefined)	> 100 µg/mL
CC1=C(C(=O)O)N2C(=O)C(NC(=O)C(N)c3ccc4c(c3)OCCO4)C2SC1 (mixture of isomers)	> 200 µg/mL
CC(=O)OCC1=C(C(=O)O)N2C(=O)C(NC(=O)C(N)c3ccc4c(c3)OCO4)C2SC1 (racemic)	> 200 µg/mL

Results, then the compound that gave them:

MIC	SMILES
50 µg/mL (≈ 118 µM)	CC1(C)SC2C(NC(=O)C(C(=O)O)c3ccc4c(c3)OCO4)C(=O)N2C1C(=O)O (racemic)
> 200 µg/mL	CC1=C(C(=O)O)N2C(=O)C(NC(=O)C(N)c3cccc4c3OCO4)C2SC1 (centres undefined)

test system: Streptococcus pyogenes; assay: (§2) Tested for the antimicrobial activity against Streptococcus pyogenes in mice; format: functional; settings: not given

SMILES	ED50
CC1=C(C(=O)O)N2C(=O)C(NC(=O)[C@H](N)c3ccc4c(c3)CCO4)C2SC1 (some centres undefined)	0.37 mg/kg

test system: Streptococcus pyogenes; assay: as §2; format: functional; settings: not given

SMILES	ED50
CC1=C(C(=O)O)N2C(=O)C(NC(=O)[C@H](N)c3ccc4c(c3)CCO4)C2SC1 (some centres undefined)	0.34 mg/kg

test system: not listed separately; assay: Tested for inhibition of visible growth of Salmonella schottmuelleri; format: functional; settings: not given

SMILES	MIC
CC1=C(C(=O)O)N2C(=O)C(NC(=O)[C@H](N)c3ccc4c(c3)CCO4)C2SC1 (some centres undefined)	12.5 µg/mL (≈ 32.1 µM)
CC1=C(C(=O)O)N2C(=O)C(NC(=O)C(N)c3ccc4c(c3)OCCO4)C2SC1 (mixture of isomers)	100 µg/mL
CC(=O)OCC1=C(C(=O)O)N2C(=O)C(NC(=O)C(N)c3ccc4c(c3)OCO4)C2SC1 (racemic)	12.5 µg/mL (≈ 27.8 µM)

Results, then the compound that gave them:

MIC	SMILES
50 µg/mL (≈ 118 µM)	CC1(C)SC2C(NC(=O)C(C(=O)O)c3ccc4c(c3)OCO4)C(=O)N2C1C(=O)O (racemic)
100 µg/mL (≈ 255 µM)	CC1=C(C(=O)O)N2C(=O)C(NC(=O)C(N)c3cccc4c3OCO4)C2SC1 (centres undefined)

test system: Enterococcus faecalis; assay: Tested for inhibition of visible growth of Streptococcus faecalis; format: functional; settings: not given

SMILES	MIC
CC1=C(C(=O)O)N2C(=O)C(NC(=O)[C@H](N)c3ccc4c(c3)CCO4)C2SC1 (some centres undefined)	> 100 µg/mL
CC1=C(C(=O)O)N2C(=O)C(NC(=O)C(N)c3ccc4c(c3)OCCO4)C2SC1 (mixture of isomers)	> 200 µg/mL
CC(=O)OCC1=C(C(=O)O)N2C(=O)C(NC(=O)C(N)c3ccc4c(c3)OCO4)C2SC1 (racemic)	200 µg/mL (≈ 445 µM)

More lines, now with the values ahead:

MIC	SMILES
> 100 µg/mL	CC1(C)SC2C(NC(=O)C(C(=O)O)c3ccc4c(c3)OCO4)C(=O)N2C1C(=O)O (racemic)
> 200 µg/mL	CC1=C(C(=O)O)N2C(=O)C(NC(=O)C(N)c3cccc4c3OCO4)C2SC1 (centres undefined)

test system: Escherichia coli; assay: Tested for inhibition of visible growth of Escherichia coli; format: functional; settings: not given

SMILES	MIC
CC1=C(C(=O)O)N2C(=O)C(NC(=O)[C@H](N)c3ccc4c(c3)CCO4)C2SC1 (some centres undefined)	50 µg/mL (≈ 128 µM)
CC1=C(C(=O)O)N2C(=O)C(NC(=O)C(N)c3ccc4c(c3)OCCO4)C2SC1 (mixture of isomers)	200 µg/mL
CC(=O)OCC1=C(C(=O)O)N2C(=O)C(NC(=O)C(N)c3ccc4c(c3)OCO4)C2SC1 (racemic)	50 µg/mL (≈ 111 µM)

Next, values leading:

MIC	SMILES
50 µg/mL (≈ 118 µM)	CC1(C)SC2C(NC(=O)C(C(=O)O)c3ccc4c(c3)OCO4)C(=O)N2C1C(=O)O (racemic)
> 200 µg/mL	CC1=C(C(=O)O)N2C(=O)C(NC(=O)C(N)c3cccc4c3OCO4)C2SC1 (centres undefined)

test system: Pseudomonas aeruginosa; assay: Tested for inhibition of visible growth of Pseudomonas aeruginosa; format: functional; settings: not given

MIC	SMILES
3.1 µg/mL (≈ 7.34 µM)	CC1(C)SC2C(NC(=O)C(C(=O)O)c3ccc4c(c3)OCO4)C(=O)N2C1C(=O)O (racemic)

test system: Streptococcus pneumoniae; assay: as §1; format: functional; settings: not given

SMILES	ED50
CC1=C(C(=O)O)N2C(=O)C(NC(=O)[C@H](N)c3ccc4c(c3)CCO4)C2SC1 (some centres undefined)	8.6 mg/kg

test system: Streptococcus pneumoniae; assay: Tested for inhibition of visible growth of Streptococcus pneumoniae; format: functional; settings: not given

SMILES	MIC
CC1=C(C(=O)O)N2C(=O)C(NC(=O)[C@H](N)c3ccc4c(c3)CCO4)C2SC1 (some centres undefined)	0.4 µg/mL (≈ 1.03 µM)
CC1=C(C(=O)O)N2C(=O)C(NC(=O)C(N)c3ccc4c(c3)OCCO4)C2SC1 (mixture of isomers)	1.6 µg/mL
CC(=O)OCC1=C(C(=O)O)N2C(=O)C(NC(=O)C(N)c3ccc4c(c3)OCO4)C2SC1 (racemic)	0.4 µg/mL (≈ 0.89 µM)

Now from value to compound:

MIC	SMILES
0.2 µg/mL (≈ 0.473 µM)	CC1(C)SC2C(NC(=O)C(C(=O)O)c3ccc4c(c3)OCO4)C(=O)N2C1C(=O)O (racemic)
6.2 µg/mL (≈ 15.8 µM)	CC1=C(C(=O)O)N2C(=O)C(NC(=O)C(N)c3cccc4c3OCO4)C2SC1 (centres undefined)

test system: Staphylococcus aureus; assay: Tested for inhibition of visible growth of Staphylococcus aureus, benzyl-penicillin sensitive; format: functional; settings: not given

SMILES	MIC
CC1=C(C(=O)O)N2C(=O)C(NC(=O)[C@H](N)c3ccc4c(c3)CCO4)C2SC1 (some centres undefined)	0.4 µg/mL (≈ 1.03 µM)
CC1=C(C(=O)O)N2C(=O)C(NC(=O)C(N)c3ccc4c(c3)OCCO4)C2SC1 (mixture of isomers)	0.8 µg/mL
CC(=O)OCC1=C(C(=O)O)N2C(=O)C(NC(=O)C(N)c3ccc4c(c3)OCO4)C2SC1 (racemic)	3.1 µg/mL (≈ 6.9 µM)

Now from value to compound:

MIC	SMILES
0.8 µg/mL (≈ 1.89 µM)	CC1(C)SC2C(NC(=O)C(C(=O)O)c3ccc4c(c3)OCO4)C(=O)N2C1C(=O)O (racemic)
3.1 µg/mL (≈ 7.92 µM)	CC1=C(C(=O)O)N2C(=O)C(NC(=O)C(N)c3cccc4c3OCO4)C2SC1 (centres undefined)

test system: Staphylococcus aureus; assay: Tested for the antimicrobial activity against Staphylococcus aureus, benzyl-penicillin sensitive in mice, perorally; format: functional; settings: po

SMILES	ED50
CC1=C(C(=O)O)N2C(=O)C(NC(=O)[C@H](N)c3ccc4c(c3)CCO4)C2SC1 (some centres undefined)	0.67 mg/kg
